Measurements as given in the supplement of paper PMC10307832.

Key:
Assay in all cases: relative viability (nuclei count vs DMSO), 5 days (fraction); higher = more cells survive
NCI-H1395 = tested on: NCI-H1395
In short: (§1)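 Lung cancer cell lines were seeded in 1536-well plates and dosed by pin tool the next day, with either a single drug or a fixed anchor-drug dose combined with five library-drug doses (not always all listed) spaced in √10 steps. Five days later, one step fixed the cells and stained their nuclei (final 0.05% Triton X-100, 1% formaldehyde, 1 ug/ml Hoechst), and nuclei were counted on 4× images. Relative viability is the nuclei count in treated wells divided by the count in vehicle wells, and each value is the median of duplicate plates.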

NCI-H2009 = tested on: NCI-H2009
In short: as §1

NCI-H2228 = tested on: NCI-H2228
In short: as §1

EPLC-272H = tested on: EPLC-272H
In short: as §1

NCI-H661 = tested on: NCI-H661
In short: as §1

NCI-H23 = tested on: NCI-H23
In short: as §1

BEN = tested on: BEN
In short: as §1

NCI-H322M = tested on: NCI-H322M
In short: as §1

NCI-H650 = tested on: NCI-H650
In short: as §1

HCC-78 = tested on: HCC-78
In short: as §1

NCI-H2342 = tested on: NCI-H2342
In short: as §1

HCC-15 = tested on: HCC-15
In short: as §1

NCI-H460 = tested on: NCI-H460
In short: as §1

NCI-H2126 = tested on: NCI-H2126
In short: as §1

PC-14 = tested on: PC-14
In short: as §1

LCLC-97TM1 = tested on: LCLC-97TM1
In short: as §1

NCI-H2405 = tested on: NCI-H2405
In short: as §1

NCI-H838 = tested on: NCI-H838
In short: as §1

LU99A = tested on: LU99A
In short: as §1

NCI-H2085 = tested on: NCI-H2085
In short: as §1

201T = tested on: 201T
In short: as §1

NCI-H1355 = tested on: NCI-H1355
In short: as §1

NCI-H647 = tested on: NCI-H647
In short: as §1

Cc1cn(-c2cc(NC(=O)c3ccc(C)c(Nc4nccc(-c5cccnc5)n4)c3)cc(C(F)(F)F)c2)cn1 [Nilotinib] + COc1cc2c(Oc3ccc(NC(=O)C4(C(=O)Nc5ccc(F)cc5)CC4)cc3F)ccnc2cc1OCCCN1CCOCC1 [Foretinib] (partner 0.25 µM)
relative viability (NCI-H1395; first compound 0.001 µM): 1.07 | relative viability (NCI-H1395; first compound 0.003162 µM): 0.937 | relative viability (NCI-H1395; first compound 0.01 µM): 0.953 | relative viability (NCI-H1395; first compound 0.03162 µM): 0.853 | relative viability (NCI-H1395; first compound 0.1 µM): 1.02 | relative viability (NCI-H2009; first compound 0.001 µM): 1.12 | relative viability (NCI-H2009; first compound 0.003162 µM): 1.41 | relative viability (NCI-H2009; first compound 0.01 µM): 1.32 | relative viability (NCI-H2009; first compound 0.03162 µM): 1.16 | relative viability (NCI-H2009; first compound 0.1 µM): 1.1 | relative viability (NCI-H2228; first compound 0.003162 µM): 0.99 | relative viability (NCI-H2228; first compound 0.01 µM): 1.06 | relative viability (NCI-H2228; first compound 0.03162 µM): 0.549 | relative viability (NCI-H2228; first compound 0.1 µM): 0.8 | relative viability (EPLC-272H; first compound 0.001 µM): 0.48 | relative viability (EPLC-272H; first compound 0.003162 µM): 0.658 | relative viability (EPLC-272H; first compound 0.01 µM): 0.688 | relative viability (EPLC-272H; first compound 0.03162 µM): 0.435 | relative viability (EPLC-272H; first compound 0.1 µM): 0.195 | relative viability (NCI-H661; first compound 0.001 µM): 1.03 | relative viability (NCI-H661; first compound 0.003162 µM): 1.18 | relative viability (NCI-H661; first compound 0.03162 µM): 0.919 | relative viability (NCI-H661; first compound 0.1 µM): 0.9 | relative viability (NCI-H23; first compound 0.001 µM): 1.06 | relative viability (NCI-H23; first compound 0.003162 µM): 1.13 | relative viability (NCI-H23; first compound 0.01 µM): 1.02 | relative viability (NCI-H23; first compound 0.03162 µM): 0.79 | relative viability (NCI-H23; first compound 0.1 µM): 0.658 | relative viability (BEN; first compound 0.001 µM): 0.829 | relative viability (BEN; first compound 0.003162 µM): 0.674 | relative viability (BEN; first compound 0.01 µM): 0.494 | relative viability (BEN; first compound 0.03162 µM): 0.647 | relative viability (BEN; first compound 0.1 µM): 0.285 | relative viability (NCI-H322M; first compound 0.001 µM): 1.01 | relative viability (NCI-H322M; first compound 0.003162 µM): 0.987 | relative viability (NCI-H322M; first compound 0.01 µM): 1.05 | relative viability (NCI-H322M; first compound 0.03162 µM): 0.956 | relative viability (NCI-H322M; first compound 0.1 µM): 1.07 | relative viability (NCI-H650; first compound 0.001 µM): 0.982 | relative viability (NCI-H650; first compound 0.003162 µM): 0.999 | relative viability (NCI-H650; first compound 0.03162 µM): 0.986 | relative viability (NCI-H650; first compound 0.1 µM): 1 | relative viability (HCC-78; first compound 0.001 µM): 0.636 | relative viability (HCC-78; first compound 0.003162 µM): 0.65 | relative viability (HCC-78; first compound 0.01 µM): 0.719 | relative viability (HCC-78; first compound 0.03162 µM): 0.577 | relative viability (HCC-78; first compound 0.1 µM): 0.59 | relative viability (NCI-H2342; first compound 0.001 µM): 0.968 | relative viability (NCI-H2342; first compound 0.003162 µM): 1.1 | relative viability (NCI-H2342; first compound 0.03162 µM): 0.979 | relative viability (NCI-H2342; first compound 0.1 µM): 1 | relative viability (HCC-15; first compound 0.001 µM): 0.975 | relative viability (HCC-15; first compound 0.003162 µM): 1.25 | relative viability (HCC-15; first compound 0.01 µM): 1.09 | relative viability (HCC-15; first compound 0.03162 µM): 0.858 | relative viability (HCC-15; first compound 0.1 µM): 0.754 | relative viability (NCI-H460; first compound 0.001 µM): 0.903 | relative viability (NCI-H460; first compound 0.003162 µM): 1.31 | relative viability (NCI-H460; first compound 0.01 µM): 1.17 | relative viability (NCI-H460; first compound 0.03162 µM): 0.66 | relative viability (NCI-H460; first compound 0.1 µM): 0.941 | relative viability (NCI-H2126; first compound 0.001 µM): 1.08 | relative viability (NCI-H2126; first compound 0.003162 µM): 1.41 | relative viability (NCI-H2126; first compound 0.01 µM): 1.26 | relative viability (NCI-H2126; first compound 0.03162 µM): 1.2 | relative viability (NCI-H2126; first compound 0.1 µM): 1.08 | relative viability (PC-14; first compound 0.001 µM): 0.974 | relative viability (PC-14; first compound 0.003162 µM): 1.11 | relative viability (PC-14; first compound 0.01 µM): 1.07 | relative viability (PC-14; first compound 0.03162 µM): 0.845 | relative viability (PC-14; first compound 0.1 µM): 0.928 | relative viability (LCLC-97TM1; first compound 0.001 µM): 0.902 | relative viability (LCLC-97TM1; first compound 0.003162 µM): 1.05 | relative viability (LCLC-97TM1; first compound 0.01 µM): 0.956 | relative viability (LCLC-97TM1; first compound 0.03162 µM): 0.883 | relative viability (LCLC-97TM1; first compound 0.1 µM): 0.885 | relative viability (NCI-H2405; first compound 0.001 µM): 1.05 | relative viability (NCI-H2405; first compound 0.003162 µM): 1.05 | relative viability (NCI-H2405; first compound 0.01 µM): 1.03 | relative viability (NCI-H2405; first compound 0.03162 µM): 0.956 | relative viability (NCI-H2405; first compound 0.1 µM): 0.98 | relative viability (NCI-H838; first compound 0.001 µM): 1.03 | relative viability (NCI-H838; first compound 0.003162 µM): 1.16 | relative viability (NCI-H838; first compound 0.01 µM): 1.27 | relative viability (NCI-H838; first compound 0.03162 µM): 0.91 | relative viability (NCI-H838; first compound 0.1 µM): 0.949 | relative viability (LU99A; first compound 0.001 µM): 0.784 | relative viability (LU99A; first compound 0.003162 µM): 0.848 | relative viability (LU99A; first compound 0.01 µM): 0.889 | relative viability (LU99A; first compound 0.03162 µM): 0.823 | relative viability (LU99A; first compound 0.1 µM): 0.509 | relative viability (NCI-H2085; first compound 0.001 µM): 0.919 | relative viability (NCI-H2085; first compound 0.003162 µM): 1.09 | relative viability (NCI-H2085; first compound 0.01 µM): 1.17 | relative viability (NCI-H2085; first compound 0.03162 µM): 0.84 | relative viability (NCI-H2085; first compound 0.1 µM): 0.801 | relative viability (201T; first compound 0.001 µM): 0.9 | relative viability (201T; first compound 0.003162 µM): 1.09 | relative viability (201T; first compound 0.01 µM): 1.32 | relative viability (201T; first compound 0.03162 µM): 1.01 | relative viability (201T; first compound 0.1 µM): 1.14 | relative viability (NCI-H1355; first compound 0.001 µM): 0.907 | relative viability (NCI-H1355; first compound 0.003162 µM): 1.19 | relative viability (NCI-H1355; first compound 0.01 µM): 1.25 | relative viability (NCI-H1355; first compound 0.03162 µM): 0.893 | relative viability (NCI-H1355; first compound 0.1 µM): 0.992 | relative viability (NCI-H647; first compound 0.001 µM): 1.09 | relative viability (NCI-H647; first compound 0.003162 µM): 1.16 | relative viability (NCI-H647; first compound 0.01 µM): 1.34 | relative viability (NCI-H647; first compound 0.03162 µM): 0.879 | relative viability (NCI-H647; first compound 0.1 µM): 0.86
